In patent publication US8937064B2, “Pyrazolo[1,5-a]pyrimidines useful as JAK2 inhibitors” (Vertex Pharmaceuticals Incorporated, priority 2007, dated 2015):

Assays:
JAK3 = target: T1, JAK3 (Homo sapiens, UniProt P52333); experiment: JAK3 Inhibition Assay; format: biochemical; settings: 1 nM JAK3, 1 μM poly(Glu)4Tyr, 5 μM ATP, 25° C., 33P incorporation
T1 sequence (P52333 1-1124): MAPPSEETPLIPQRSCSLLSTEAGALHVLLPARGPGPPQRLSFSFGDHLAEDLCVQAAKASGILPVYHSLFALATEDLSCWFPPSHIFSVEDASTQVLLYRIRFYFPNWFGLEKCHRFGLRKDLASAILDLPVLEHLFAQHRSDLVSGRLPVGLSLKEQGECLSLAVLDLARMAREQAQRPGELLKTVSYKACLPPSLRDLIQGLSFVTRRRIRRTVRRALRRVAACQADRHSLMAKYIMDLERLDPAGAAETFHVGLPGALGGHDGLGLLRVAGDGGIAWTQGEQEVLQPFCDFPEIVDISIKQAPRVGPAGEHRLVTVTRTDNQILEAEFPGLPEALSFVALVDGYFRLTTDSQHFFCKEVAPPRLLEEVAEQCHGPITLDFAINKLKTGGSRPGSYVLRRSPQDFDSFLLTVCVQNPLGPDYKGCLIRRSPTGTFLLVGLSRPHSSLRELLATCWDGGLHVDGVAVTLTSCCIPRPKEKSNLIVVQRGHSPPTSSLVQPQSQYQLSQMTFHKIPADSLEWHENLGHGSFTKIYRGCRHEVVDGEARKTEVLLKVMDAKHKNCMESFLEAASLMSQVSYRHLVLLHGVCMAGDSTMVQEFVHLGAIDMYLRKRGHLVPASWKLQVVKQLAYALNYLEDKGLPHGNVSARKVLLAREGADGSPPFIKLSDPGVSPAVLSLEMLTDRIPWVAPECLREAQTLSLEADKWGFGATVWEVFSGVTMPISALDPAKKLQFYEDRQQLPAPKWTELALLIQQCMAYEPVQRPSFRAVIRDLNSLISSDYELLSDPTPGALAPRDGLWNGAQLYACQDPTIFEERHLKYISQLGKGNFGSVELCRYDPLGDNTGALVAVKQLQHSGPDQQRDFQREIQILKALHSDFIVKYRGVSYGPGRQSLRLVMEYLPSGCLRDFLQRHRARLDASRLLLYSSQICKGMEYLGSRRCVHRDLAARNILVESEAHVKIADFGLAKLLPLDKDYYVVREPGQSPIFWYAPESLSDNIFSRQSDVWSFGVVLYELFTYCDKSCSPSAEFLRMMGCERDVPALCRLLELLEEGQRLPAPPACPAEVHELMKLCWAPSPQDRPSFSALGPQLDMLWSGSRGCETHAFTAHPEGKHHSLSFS

JAK-2 enzyme = JAK-2 enzyme (Homo sapiens, UniProt O60674); experiment: JAK2 Inhibition Assay
Chain of JAK-2 enzyme (O60674 whole entry): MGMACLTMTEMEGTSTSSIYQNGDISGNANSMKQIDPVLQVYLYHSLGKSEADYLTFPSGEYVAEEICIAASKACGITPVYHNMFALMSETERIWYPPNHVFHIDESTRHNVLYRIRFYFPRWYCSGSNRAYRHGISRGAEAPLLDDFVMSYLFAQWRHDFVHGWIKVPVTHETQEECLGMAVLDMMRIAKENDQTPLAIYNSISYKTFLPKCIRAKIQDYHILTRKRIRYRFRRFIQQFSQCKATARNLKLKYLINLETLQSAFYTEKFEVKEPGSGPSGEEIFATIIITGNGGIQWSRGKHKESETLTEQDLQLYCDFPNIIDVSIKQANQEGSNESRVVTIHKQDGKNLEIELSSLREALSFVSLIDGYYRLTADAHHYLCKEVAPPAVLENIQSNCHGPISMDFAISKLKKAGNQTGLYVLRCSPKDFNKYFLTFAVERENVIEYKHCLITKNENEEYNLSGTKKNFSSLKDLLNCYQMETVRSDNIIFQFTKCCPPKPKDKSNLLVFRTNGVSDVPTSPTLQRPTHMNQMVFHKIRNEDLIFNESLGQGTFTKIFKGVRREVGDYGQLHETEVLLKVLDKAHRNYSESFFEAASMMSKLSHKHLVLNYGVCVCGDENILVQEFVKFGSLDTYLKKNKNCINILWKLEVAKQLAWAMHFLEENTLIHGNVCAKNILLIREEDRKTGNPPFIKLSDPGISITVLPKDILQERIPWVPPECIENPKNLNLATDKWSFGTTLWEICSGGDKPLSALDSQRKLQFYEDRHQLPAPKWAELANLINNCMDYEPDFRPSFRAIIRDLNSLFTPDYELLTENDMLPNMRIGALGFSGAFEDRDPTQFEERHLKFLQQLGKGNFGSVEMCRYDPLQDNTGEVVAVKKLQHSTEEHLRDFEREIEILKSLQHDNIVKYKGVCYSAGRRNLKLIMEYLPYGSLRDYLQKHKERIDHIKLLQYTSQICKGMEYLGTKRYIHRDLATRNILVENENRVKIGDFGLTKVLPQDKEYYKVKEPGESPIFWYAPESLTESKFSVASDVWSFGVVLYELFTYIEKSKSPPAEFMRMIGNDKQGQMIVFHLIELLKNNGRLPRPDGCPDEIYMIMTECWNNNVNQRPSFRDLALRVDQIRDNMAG
Protocol: Reactions were carried out in a kinase buffer containing 100 mM HEPES (pH 7.4), 1 mM DTT, 10 mM MgCl2, 25 mM NaCl, and 0.01% BSA. Substrate concentrations in the assay were 5 μM ATP (200 uCi/μmole ATP) and 1 μM poly(Glu)4Tyr. Reactions were carried out at 25° C. and 1 nM JAK3.
To each well of a 96 well polycarbonate plate was added 1.5 μl of a candidate JAK3 inhibitor along with 50 μl of kinase buffer containing 2 μM poly(Glu)4Tyr and 10 μM ATP. This was then mixed and 50 μl of kinase buffer containing 2 nM JAK3 enzyme was added to start the reaction. After 20 minutes at room temperature (25° C.), the reaction was stopped with 50 μl of 20% trichloroacetic acid (TCA) that also contained 0.4 mM ATP. The entire contents of each well were then transferred to a 96 well glass fiber filter plate using a TomTek Cell Harvester. After washing, 60 μl of scintillation fluid was added and ^33P incorporation detected on a Perkin Elmer TopCount.

Ki (JAK3) [nM] | Ki (JAK-2 enzyme) [nM] | Structure (SMILES)
100 to 500 | 10 to 100 | CCC#CCOc1nc(N[C@@H](C)c2ccc(F)cc2)cc(-c2c(N)nn3cccnc23)n1 [Compound 162]
500 to 5000 | 10 to 100 | C[C@H](Nc1cc(-c2c(N)nn3cccnc23)nc(OC[C@@H]2CO2)n1)c1ccc(F)cc1 [Compound 163]
10 to 100 | < 10 | C[C@H](Nc1cc(-c2c(N)nn3cccnc23)nc(OCC2CCOC2)n1)c1ccc(F)cc1 (stereo partly drawn) [Compound 164]
100 to 500 | 10 to 100 | CC/C=C\COc1nc(N[C@@H](C)c2ccc(F)cc2)cc(-c2c(N)nn3cccnc23)n1 [Compound 165]
10 to 100 | < 10 | C[C@H](Nc1cc(-c2c(N)nn3cccnc23)nc(OCC2CC2)n1)c1ccc(F)cc1 [Compound 166]
500 to 5000 | 10 to 100 | CC(C)CCCOc1nc(N[C@@H](C)c2ccc(F)cc2)cc(-c2c(N)nn3cccnc23)n1 [Compound 167]
10 to 100 | < 10 | C[C@H](Nc1cc(-c2c(N)nn3cccnc23)nc(OCC2COC(C)(C)O2)n1)c1ccc(F)cc1 (stereo partly drawn) [Compound 168]
10 to 100 | < 10 | C=CCOc1nc(N[C@@H](C)c2ccc(F)cc2)cc(-c2c(N)nn3cccnc23)n1 [Compound 169]
10 to 100 | < 10 | C=CCCOc1nc(N[C@@H](C)c2ccc(F)cc2)cc(-c2c(N)nn3cccnc23)n1 [Compound 170]
10 to 100 | 10 to 100 | C[C@H](Nc1cc(-c2c(N)nn3cccnc23)nc(OCC2CCCN(C)C2)n1)c1ccc(F)cc1 (stereo partly drawn) [Compound 171]
10 to 100 | < 10 | CSCCCOc1nc(N[C@@H](C)c2ccc(F)cc2)cc(-c2c(N)nn3cccnc23)n1 [Compound 172]
10 to 100 | < 10 | CSCCOc1nc(N[C@@H](C)c2ccc(F)cc2)cc(-c2c(N)nn3cccnc23)n1 [Compound 173]
100 to 500 | 10 to 100 | C=COCCCCOc1nc(N[C@@H](C)c2ccc(F)cc2)cc(-c2c(N)nn3cccnc23)n1 [Compound 174]
100 to 500 | < 10 | C=C(C)COc1nc(N[C@@H](C)c2ccc(F)cc2)cc(-c2c(N)nn3cccnc23)n1 [Compound 175]
100 to 500 | 10 to 100 | C[C@H](Nc1cc(-c2c(N)nn3cccnc23)nc(OCC2CCCC2)n1)c1ccc(F)cc1 [Compound 176]
500 to 5000 | 100 to 500 | C[C@H](Nc1cc(-c2c(N)nn3cccnc23)nc(OCCCC2CCCC2)n1)c1ccc(F)cc1 [Compound 177]
10 to 100 | < 10 | COC(C)(C)CCOc1nc(N[C@@H](C)c2ccc(F)cc2)cc(-c2c(N)nn3cccnc23)n1 [Compound 178]
500 to 5000 | 10 to 100 | CCC#CC(C)Oc1nc(N[C@@H](C)c2ccc(F)cc2)cc(-c2c(N)nn3cccnc23)n1 (stereo partly drawn) [Compound 179]
100 to 500 | < 10 | C#CC(CC)Oc1nc(N[C@@H](C)c2ccc(F)cc2)cc(-c2c(N)nn3cccnc23)n1 (stereo partly drawn) [Compound 180]
100 to 500 | 10 to 100 | CC#CC(C)Oc1nc(N[C@@H](C)c2ccc(F)cc2)cc(-c2c(N)nn3cccnc23)n1 (stereo partly drawn) [Compound 181]
100 to 500 | 10 to 100 | C=CCCCOc1nc(N[C@@H](C)c2ccc(F)cc2)cc(-c2c(N)nn3cccnc23)n1 [Compound 182]
10 to 100 | < 10 | C#CCCCOc1nc(N[C@@H](C)c2ccc(F)cc2)cc(-c2c(N)nn3cccnc23)n1 [Compound 183]
100 to 500 | < 10 | COCCC(=O)Nc1nc(N[C@@H](C)c2ccc(F)cc2F)cc(-c2cnn3cccnc23)n1 [Compound 184]

Ki (JAK3) [nM] | Ki (JAK-2 enzyme) [nM] | Structure (SMILES)
100 to 500 | < 10 | C[C@H](Nc1cc(-c2cnn3cccnc23)nc(NC(=O)CCN2CCCC2=O)n1)c1ccc(F)cc1F [Compound 185]
100 to 500 | < 10 | C[C@H](Nc1cc(-c2cnn3cccnc23)nc(NC(=O)CN2CCOCC2)n1)c1ccc(F)cc1F [Compound 186]
10 to 100 | < 10 | COCC(=O)Nc1nc(N[C@@H](C)c2ccc(F)cc2F)cc(-c2cnn3cccnc23)n1 [Compound 187]
100 to 500 | < 10 | CCC(=O)Nc1nc(N[C@@H](C)c2ccc(F)cc2F)cc(-c2cnn3cccnc23)n1 [Compound 188]
100 to 500 | < 10 | C[C@H](Nc1cc(-c2c(N)nn3cccnc23)nc(N2CC[C@@H](F)C2)n1)c1ccc(F)cc1 [Compound 189]
10 to 100 | < 10 | C[C@H](Nc1cc(-c2c(N)nn3cccnc23)nc(N2CCC(N(C)C)C2)n1)c1ccc(F)cc1 (stereo partly drawn) [Compound 190]
100 to 500 | 10 to 100 | C[C@H](Nc1cc(-c2c(N)nn3cccnc23)nc(N2CC[C@H](F)C2)n1)c1ccc(F)cc1 [Compound 191]
10 to 100 | < 10 | CCC(C#N)Oc1nc(N[C@@H](C)c2ccc(F)cc2F)cc(-c2cnn3cccnc23)n1 (stereo partly drawn) [Compound 192]
100 to 500 | < 10 | C[C@H](Nc1cc(-c2cnn3cccnc23)nc(OCC(C)(C)N(C)C)n1)c1ccc(F)cc1F [Compound 193]
100 to 500 | 10 to 100 | COC(C)(C)CCOc1nc(N[C@@H](C)c2ccc(F)cc2F)cc(-c2cnn3cccnc23)n1 [Compound 194]
10 to 100 | < 10 | C[C@H](Nc1cc(-c2cnn3cccnc23)nc(OCCN2CCCCC2)n1)c1ccc(F)cc1F [Compound 195]
10 to 100 | < 10 | COCCOc1nc(N[C@@H](C)c2ccc(F)cc2F)cc(-c2cnn3cccnc23)n1 [Compound 196]
10 to 100 | < 10 | C[C@H](Nc1cc(-c2cnn3cccnc23)nc(OCCN(C)C)n1)c1ccc(F)cc1F [Compound 197]
10 to 100 | < 10 | C[C@H](Nc1cc(-c2cnn3cccnc23)nc(OCCC2CCCCN2)n1)c1ccc(F)cc1F (stereo partly drawn) [Compound 198]
10 to 100 | < 10 | CNCCOc1nc(N[C@@H](C)c2ccc(F)cc2F)cc(-c2cnn3cccnc23)n1 [Compound 199]
100 to 500 | < 10 | C[C@H](Nc1cc(-c2cnn3cccnc23)nc(OC2CCN(C)CC2)n1)c1ccc(F)cc1F [Compound 200]
10 to 100 | < 10 | CC(C#N)Oc1nc(N[C@@H](C)c2ccc(F)cc2F)cc(-c2cnn3cccnc23)n1 (stereo partly drawn) [Compound 201]
10 to 100 | < 10 | C[C@H](Nc1cc(-c2cnn3cccnc23)nc(OCC2CCCNC2)n1)c1ccc(F)cc1F (stereo partly drawn) [Compound 202]
100 to 500 | 10 to 100 | C[C@H](Nc1cc(-c2cnn3cccnc23)nc(OCCOCCN2CCNCC2)n1)c1ccc(F)cc1F [Compound 203]
10 to 100 | < 10 | C[C@H](Nc1cc(-c2cnn3cccnc23)nc(OCCN2CCCC2)n1)c1ccc(F)cc1F [Compound 204]
100 to 500 | < 10 | C[C@H](Nc1cc(-c2cnn3cccnc23)nc(OCC2CC2)n1)c1ccc(F)cc1F [Compound 205]
10 to 100 | < 10 | C[C@H](Nc1cc(-c2cnn3cccnc23)nc(OCCNC(C)(C)C)n1)c1ccc(F)cc1F [Compound 206]
